The source of these data is paper PMC10861852, “Loss of activation by GABA in vertebrate delta ionotropic glutamate receptors” (Proceedings of the National Academy of Sciences of the …, 2024).

Test [1] addresses T1, RatGluD2^5x (Rattus norvegicus, UniProt Q63226, A686S/K694R/N720P/P806D/Y613F).
T1 construct: expressed in transfected cells; host or cells: Xenopus laevis oocytes injected with mRNA
T1 sequence (Q63226 24-1007 Y613F/A686S/K694R/N720P/P806D): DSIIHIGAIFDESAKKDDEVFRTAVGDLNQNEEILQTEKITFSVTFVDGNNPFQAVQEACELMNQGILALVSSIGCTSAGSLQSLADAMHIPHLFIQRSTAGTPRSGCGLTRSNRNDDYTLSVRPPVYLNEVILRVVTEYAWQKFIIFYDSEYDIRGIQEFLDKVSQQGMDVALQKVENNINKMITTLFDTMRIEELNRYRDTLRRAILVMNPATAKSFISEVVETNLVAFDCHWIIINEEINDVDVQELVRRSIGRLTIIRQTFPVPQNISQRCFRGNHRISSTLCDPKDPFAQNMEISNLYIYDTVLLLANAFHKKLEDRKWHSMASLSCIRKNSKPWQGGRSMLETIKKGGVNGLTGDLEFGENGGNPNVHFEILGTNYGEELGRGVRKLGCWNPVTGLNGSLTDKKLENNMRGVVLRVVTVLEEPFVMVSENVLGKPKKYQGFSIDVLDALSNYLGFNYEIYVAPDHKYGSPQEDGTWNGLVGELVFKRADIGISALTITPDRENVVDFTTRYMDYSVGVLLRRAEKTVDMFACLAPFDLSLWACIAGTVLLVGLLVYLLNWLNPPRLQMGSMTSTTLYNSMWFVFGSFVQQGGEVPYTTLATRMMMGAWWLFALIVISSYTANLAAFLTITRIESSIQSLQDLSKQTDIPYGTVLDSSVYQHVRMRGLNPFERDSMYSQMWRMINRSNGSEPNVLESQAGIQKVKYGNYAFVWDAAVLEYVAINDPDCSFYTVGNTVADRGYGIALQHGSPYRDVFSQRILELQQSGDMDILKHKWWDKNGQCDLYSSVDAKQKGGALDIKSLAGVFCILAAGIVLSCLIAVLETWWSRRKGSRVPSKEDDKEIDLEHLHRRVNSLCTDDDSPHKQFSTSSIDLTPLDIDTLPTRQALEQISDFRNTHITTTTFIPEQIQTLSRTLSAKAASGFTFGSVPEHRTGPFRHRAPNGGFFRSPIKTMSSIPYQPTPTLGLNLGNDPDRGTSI
Kind of test: Two-electrode voltage clamp, responses to ligands in mutant-expressing oocytes. In kind it is cell-based. The conditions noted are these: ligands 30 mM. From the text: (§1) If the 10 mutations discussed above drove the loss of function in vertebrate delta iGluRs, one might expect that the latter could be “reawakened” via active invertebrate delta iGluR-like mutations here. We therefore engineered mutant RatGluD2 iGluRs to contain at these positions the equivalent residues from starfish delta iGluRs. These mutants were RatGluD2^5x, containing Y613F, A686S, K694R, N720P, and P806D substitutions (pink in Fig. 6A), and RatGluD2^9x, additionally containing N763K, D753Q, Q786M, and R787V (cyan in Fig. 6A).
(§2) Fig. 6. AcaGluD-like mutations alter RatGluD2 receptor function. (A) D-serine bound RatGluD2 from X-ray structure PDB:2v3u ([13]). Selected amino acid residues are indicated, colored, shown as sticks, and labeled 5×, 9×, 10×, and/or Lc according to the multiple mutants they were incorporated into. 10× mutant included 10×, 9×, and 5× positions. 9× included 9× and 5×. 5× included only 5×. […] (B–E) Example current responses to different neurotransmitter ligands (30 mM) and to pore blocker pentamidine (Pent, 100 μM) in oocytes expressing indicated RatGluD2 mutants. The dashed line indicates zero current baseline. (F) Individual (dots) and mean (columns) responses to ligands in oocytes expressing indicated RatGluD2 mutants (n = 4 to 5).
(Two-electrode voltage clamp is typically applied to oocytes expressing channels or transporters.)

Test [2] has as its target T2, RatGluD2^9x (Rattus norvegicus, UniProt Q63226, A686S/D753Q/K694R/N720P/N763K/P806D/Q786M/R787V/Y613F).
T2 construct: expressed in transfected cells; host or cells: Xenopus laevis oocytes injected with mRNA
T2 sequence (Q63226 24-1007 Y613F/A686S/K694R/N720P/D753Q/N763K/Q786M/R787V/P806D): T1 sequence (Q63226 24-1007 Y613F/A686S/K694R/N720P/P806D) with D730Q, N740K, Q763M, R764V
Described as above. In kind it is cell-based. The conditions noted are these: ligands 30 mM.
From the text: as §1, §2

Where a chain is given by its changes, count along the chain named.

In the case of `NCCCC(=O)O` [GABA, γ-aminobutyric acid], the “current response to ligand” value in test [1] and in test [2] was “no responses” each time.

In the case of `N[C@H](CO)C(=O)O` [D-serine], the “current response to ligand” value in test [1] and in test [2] was “no responses” in each case.

Consider `NCC(=O)O` [glycine], for which the “current response to ligand” value in test [1] and in test [2] was “no responses” each time.
